Test results published in patent US20250243196A1, “CITRON KINASE INHIBITORS” (The Cleveland Clinic Foundation, priority 2021, published 2025).

Experiments:
Type in all cases: biochemical
CDK12/cyclinK(h) = CDK12/cyclinK(h) (Homo sapiens (Human), UniProt Q9NYV4); experiment: KinaseProfiler panel; parameters: dose or concentration left out as unconfirmed; conditions: activity remaining
MYLK2(h) = MYLK2(h) (Homo sapiens (Human), UniProt Q9H1R3); experiment: KinaseProfiler panel; parameters: dose or concentration left out as unconfirmed; conditions: activity remaining
PEK(h) = PEK(h) (Homo sapiens (Human), UniProt Q9NZJ5); experiment: KinaseProfiler panel; parameters: dose or concentration left out as unconfirmed; conditions: activity remaining
Aurora-A(h) = Aurora-A(h) (Homo sapiens (Human), UniProt O14965); experiment: KinaseProfiler panel; parameters: dose or concentration left out as unconfirmed; conditions: activity remaining
MOK(h) = MOK(h) (Homo sapiens (Human), UniProt Q9UQ07); experiment: KinaseProfiler panel; conditions: activity remaining
Chain of MOK(h) (Q9UQ07 whole entry): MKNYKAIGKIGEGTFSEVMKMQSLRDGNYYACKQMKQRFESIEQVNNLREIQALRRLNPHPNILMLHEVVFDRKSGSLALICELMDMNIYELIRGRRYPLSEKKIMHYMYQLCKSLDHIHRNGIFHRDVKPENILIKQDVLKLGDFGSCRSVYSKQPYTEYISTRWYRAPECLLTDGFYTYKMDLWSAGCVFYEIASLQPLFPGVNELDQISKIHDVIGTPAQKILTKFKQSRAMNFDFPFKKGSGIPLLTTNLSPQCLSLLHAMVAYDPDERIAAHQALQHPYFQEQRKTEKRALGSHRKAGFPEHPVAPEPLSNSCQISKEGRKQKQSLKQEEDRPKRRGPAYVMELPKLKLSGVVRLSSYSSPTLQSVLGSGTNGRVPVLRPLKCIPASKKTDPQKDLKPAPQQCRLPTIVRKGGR

Lck(h) = Lck(h) (Homo sapiens (Human), UniProt P06239); experiment: KinaseProfiler panel; parameters: dose or concentration left out as unconfirmed; conditions: activity remaining
CLK4(h) = CLK4(h) (Homo sapiens (Human), UniProt Q9HAZ1); experiment: KinaseProfiler panel; parameters: dose or concentration left out as unconfirmed; conditions: activity remaining
EphB2(h) = EphB2(h) (Homo sapiens (Human), UniProt P29323); experiment: KinaseProfiler panel; parameters: dose or concentration left out as unconfirmed; conditions: activity remaining
ATR/ATRIP(h) = ATR/ATRIP(h) (Homo sapiens (Human), UniProt Q13535); experiment: KinaseProfiler panel; parameters: dose or concentration left out as unconfirmed; conditions: activity remaining
CDK17/cyclinY(h) = CDK17/cyclinY(h) (Homo sapiens (Human), UniProt Q00537); experiment: KinaseProfiler panel; parameters: dose or concentration left out as unconfirmed; conditions: activity remaining
TAO1(h) = TAO1(h) (Homo sapiens (Human), UniProt Q7L7X3); experiment: KinaseProfiler panel; parameters: dose or concentration left out as unconfirmed; conditions: activity remaining
PKAα = PKAα (Homo sapiens (Human), UniProt P17612); experiment: KinaseProfiler radiometric assay (14-440KP); conditions: mean of at least two independent experiments
Source text: In another aspect, disclosed is a method of inhibiting citron kinase in a sample, comprising contacting the sample with a compound described herein (e.g., a compound of formula (I) or a pharmaceutically acceptable salt thereof), or a pharmaceutical composition described herein (e.g., a pharmaceutical composition comprising a compound of formula (I) or a pharmaceutically acceptable salt thereof), in an amount effective to inhibit citron kinase. In some embodiments, the step of contacting the sample with the compound comprises administering the compound to a subject (e.g., a subject) suffering from cancer. Methods of determining kinase inhibition are well known in the art. For example, kinase activity of an enzyme and the inhibitory capacity of a test compound can be determined by measuring enzyme specific phosphorylation of a substrate. Commercial assays and kits can be employed. For example, kinase inhibition can be determined using a radiometric binding assay, such as using KinaseProfiler™ technology (Eurofins Discovery). This assay method directly detects product formation without the use of modified substrates or coupling enzymes. Test compounds are incubated with kinase, substrate, required cofactors and radioisotope labeled ATP. Following incubation, unreacted radioactive ATP is removed by washing and incorporation of the radiolabeled phosphate into the kinase substrate is assayed to detect phosphoryltransferase activity, which is directly proportional to the amount of phosphorylated substrate. Inhibition of the kinase by a kinase inhibitor prevents phosphorylation of the substrate and thereby limits the incorporation of radiolabeled phosphate. Such an assay is compatible with a microwell assay format, allowing simultaneous determination of IC50 of multiple compounds.
The effect of various compounds on the inhibition of other kinases has also been determined. Table 2 reports measured IC50 values; value units are nanomolar inhibition.

SLK(h) = SLK(h) (Homo sapiens (Human), UniProt Q9H2G2); experiment: KinaseProfiler panel; parameters: dose or concentration left out as unconfirmed; conditions: activity remaining
PRK2(h) = PRK2(h) (Homo sapiens (Human), UniProt Q16513); experiment: KinaseProfiler panel; parameters: dose or concentration left out as unconfirmed; conditions: activity remaining
Chain of PRK2(h) (Q16513 whole entry): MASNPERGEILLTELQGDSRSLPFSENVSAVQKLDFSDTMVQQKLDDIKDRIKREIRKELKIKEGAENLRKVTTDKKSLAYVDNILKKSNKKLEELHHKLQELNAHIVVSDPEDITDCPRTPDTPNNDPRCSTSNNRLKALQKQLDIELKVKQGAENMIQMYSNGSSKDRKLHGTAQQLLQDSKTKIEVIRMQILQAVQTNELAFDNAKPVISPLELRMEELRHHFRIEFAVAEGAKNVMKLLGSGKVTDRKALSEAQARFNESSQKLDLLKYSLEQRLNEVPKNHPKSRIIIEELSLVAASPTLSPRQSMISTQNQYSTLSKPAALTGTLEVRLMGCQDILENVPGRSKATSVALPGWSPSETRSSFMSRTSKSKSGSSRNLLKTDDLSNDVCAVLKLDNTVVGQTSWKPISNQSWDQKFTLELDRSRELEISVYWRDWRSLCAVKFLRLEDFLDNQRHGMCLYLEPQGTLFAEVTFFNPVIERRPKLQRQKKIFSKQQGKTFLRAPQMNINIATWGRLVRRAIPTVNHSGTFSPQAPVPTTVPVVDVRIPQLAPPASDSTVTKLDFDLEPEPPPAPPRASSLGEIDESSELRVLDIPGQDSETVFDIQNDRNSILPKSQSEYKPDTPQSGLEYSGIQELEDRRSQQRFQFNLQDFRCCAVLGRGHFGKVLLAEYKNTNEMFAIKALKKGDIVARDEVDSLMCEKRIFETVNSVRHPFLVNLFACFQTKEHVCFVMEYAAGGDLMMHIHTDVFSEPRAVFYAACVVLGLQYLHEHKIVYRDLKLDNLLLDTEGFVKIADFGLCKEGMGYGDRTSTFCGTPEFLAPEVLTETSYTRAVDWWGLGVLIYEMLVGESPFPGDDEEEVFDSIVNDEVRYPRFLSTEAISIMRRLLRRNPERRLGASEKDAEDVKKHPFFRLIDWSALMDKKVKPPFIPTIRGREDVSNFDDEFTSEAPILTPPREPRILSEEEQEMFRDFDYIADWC

ROCK-II(h) = ROCK-II(h) (Homo sapiens (Human), UniProt O75116); experiment: KinaseProfiler panel; parameters: dose or concentration left out as unconfirmed; conditions: activity remaining
Chain of ROCK-II(h) (O75116 whole entry): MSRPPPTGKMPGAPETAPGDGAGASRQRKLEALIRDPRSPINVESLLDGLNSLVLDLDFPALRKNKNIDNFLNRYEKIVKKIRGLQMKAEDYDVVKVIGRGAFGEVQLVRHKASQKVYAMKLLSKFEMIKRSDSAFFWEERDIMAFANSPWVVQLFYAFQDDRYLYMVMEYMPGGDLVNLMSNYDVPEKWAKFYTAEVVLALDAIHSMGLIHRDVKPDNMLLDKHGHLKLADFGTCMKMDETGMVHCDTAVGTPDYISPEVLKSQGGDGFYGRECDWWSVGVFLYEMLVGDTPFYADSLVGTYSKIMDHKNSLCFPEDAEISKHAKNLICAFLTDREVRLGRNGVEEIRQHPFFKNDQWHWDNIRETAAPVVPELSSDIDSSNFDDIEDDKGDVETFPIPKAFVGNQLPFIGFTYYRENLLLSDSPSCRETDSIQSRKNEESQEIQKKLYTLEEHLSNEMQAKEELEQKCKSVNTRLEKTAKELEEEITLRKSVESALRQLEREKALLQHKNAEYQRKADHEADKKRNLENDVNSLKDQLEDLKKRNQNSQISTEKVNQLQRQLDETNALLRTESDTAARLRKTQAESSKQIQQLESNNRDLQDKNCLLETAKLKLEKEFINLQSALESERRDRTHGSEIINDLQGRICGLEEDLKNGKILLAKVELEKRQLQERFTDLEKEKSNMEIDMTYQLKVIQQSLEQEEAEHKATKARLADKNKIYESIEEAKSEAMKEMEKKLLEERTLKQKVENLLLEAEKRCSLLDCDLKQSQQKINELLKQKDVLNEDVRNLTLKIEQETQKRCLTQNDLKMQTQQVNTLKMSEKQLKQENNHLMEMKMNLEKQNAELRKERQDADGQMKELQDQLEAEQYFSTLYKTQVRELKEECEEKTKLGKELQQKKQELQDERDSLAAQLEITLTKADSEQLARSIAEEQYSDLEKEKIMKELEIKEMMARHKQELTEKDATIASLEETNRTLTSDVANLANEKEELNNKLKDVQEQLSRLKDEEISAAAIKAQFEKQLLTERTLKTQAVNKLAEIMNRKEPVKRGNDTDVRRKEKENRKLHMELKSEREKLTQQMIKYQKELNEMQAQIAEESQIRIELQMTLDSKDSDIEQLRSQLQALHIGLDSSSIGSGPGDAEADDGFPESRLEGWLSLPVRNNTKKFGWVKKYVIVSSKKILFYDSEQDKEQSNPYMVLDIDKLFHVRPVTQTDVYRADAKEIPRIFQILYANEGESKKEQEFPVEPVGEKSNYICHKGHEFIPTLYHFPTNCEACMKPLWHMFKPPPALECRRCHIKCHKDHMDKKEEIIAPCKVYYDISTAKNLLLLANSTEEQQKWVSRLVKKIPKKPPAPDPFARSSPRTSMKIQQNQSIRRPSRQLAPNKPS

VRK1(h) = VRK1(h) (Homo sapiens (Human), UniProt Q99986); experiment: KinaseProfiler panel; parameters: dose or concentration left out as unconfirmed; conditions: activity remaining
Chain of VRK1(h) (Q99986 whole entry): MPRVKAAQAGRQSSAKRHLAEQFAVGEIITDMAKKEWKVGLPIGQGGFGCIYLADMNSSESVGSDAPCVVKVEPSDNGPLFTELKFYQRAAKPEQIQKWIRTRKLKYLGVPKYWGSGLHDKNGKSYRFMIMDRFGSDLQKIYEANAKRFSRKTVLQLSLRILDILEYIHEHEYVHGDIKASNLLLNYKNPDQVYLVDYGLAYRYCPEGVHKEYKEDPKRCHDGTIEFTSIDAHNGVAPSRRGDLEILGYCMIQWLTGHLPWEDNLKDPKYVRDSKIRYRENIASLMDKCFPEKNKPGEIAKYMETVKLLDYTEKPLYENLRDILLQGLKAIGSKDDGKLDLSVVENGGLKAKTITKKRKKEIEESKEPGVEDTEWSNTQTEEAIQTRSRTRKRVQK

GRK1(h) = GRK1(h) (Homo sapiens (Human), UniProt Q15835); experiment: KinaseProfiler panel; parameters: dose or concentration left out as unconfirmed; conditions: activity remaining
CDK7/cyclinH/MAT1(h) = CDK7/cyclinH/MAT1(h) (Homo sapiens (Human), UniProt P50613); experiment: KinaseProfiler panel; parameters: dose or concentration left out as unconfirmed; conditions: activity remaining
SGK3(h) = SGK3(h) (Homo sapiens (Human), UniProt Q96BR1); experiment: KinaseProfiler panel; parameters: dose or concentration left out as unconfirmed; conditions: activity remaining
Chain of SGK3(h) (Q96BR1 whole entry): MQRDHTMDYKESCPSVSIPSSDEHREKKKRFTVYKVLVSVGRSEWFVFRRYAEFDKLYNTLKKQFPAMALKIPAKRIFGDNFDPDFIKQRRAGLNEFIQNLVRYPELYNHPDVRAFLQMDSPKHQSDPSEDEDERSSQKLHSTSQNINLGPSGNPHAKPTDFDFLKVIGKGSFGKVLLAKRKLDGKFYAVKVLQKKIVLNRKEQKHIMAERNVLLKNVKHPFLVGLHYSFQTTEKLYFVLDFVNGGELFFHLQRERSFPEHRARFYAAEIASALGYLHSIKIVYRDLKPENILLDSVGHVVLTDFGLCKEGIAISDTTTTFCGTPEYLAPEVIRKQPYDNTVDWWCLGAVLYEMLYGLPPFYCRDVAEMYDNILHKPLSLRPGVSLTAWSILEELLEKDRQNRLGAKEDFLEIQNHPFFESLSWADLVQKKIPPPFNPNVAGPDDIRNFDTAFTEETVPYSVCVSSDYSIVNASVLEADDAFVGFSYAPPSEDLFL

A-Raf(h) = A-Raf(h) (Homo sapiens (Human), UniProt P10398); experiment: KinaseProfiler panel; parameters: dose or concentration left out as unconfirmed; conditions: activity remaining
CaMKIδ(h) = CaMKIδ(h) (Homo sapiens (Human), UniProt Q8IU85); experiment: KinaseProfiler panel; parameters: dose or concentration left out as unconfirmed; conditions: activity remaining
Chain of CaMKIδ(h) (Q8IU85 whole entry): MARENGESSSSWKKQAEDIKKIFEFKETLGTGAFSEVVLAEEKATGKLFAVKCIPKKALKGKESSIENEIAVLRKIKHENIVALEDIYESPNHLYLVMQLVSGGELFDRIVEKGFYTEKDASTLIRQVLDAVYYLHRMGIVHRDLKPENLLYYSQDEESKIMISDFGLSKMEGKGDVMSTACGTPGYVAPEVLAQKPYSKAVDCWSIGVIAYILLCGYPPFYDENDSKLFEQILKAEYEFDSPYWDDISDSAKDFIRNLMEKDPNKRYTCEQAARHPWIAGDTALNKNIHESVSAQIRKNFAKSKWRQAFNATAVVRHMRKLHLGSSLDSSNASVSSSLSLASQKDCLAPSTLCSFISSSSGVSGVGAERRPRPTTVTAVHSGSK

PRK1(h) = PRK1(h) (Homo sapiens (Human), UniProt Q16512); experiment: KinaseProfiler panel; parameters: dose or concentration left out as unconfirmed; conditions: activity remaining
Chain of PRK1(h) (Q16512 whole entry): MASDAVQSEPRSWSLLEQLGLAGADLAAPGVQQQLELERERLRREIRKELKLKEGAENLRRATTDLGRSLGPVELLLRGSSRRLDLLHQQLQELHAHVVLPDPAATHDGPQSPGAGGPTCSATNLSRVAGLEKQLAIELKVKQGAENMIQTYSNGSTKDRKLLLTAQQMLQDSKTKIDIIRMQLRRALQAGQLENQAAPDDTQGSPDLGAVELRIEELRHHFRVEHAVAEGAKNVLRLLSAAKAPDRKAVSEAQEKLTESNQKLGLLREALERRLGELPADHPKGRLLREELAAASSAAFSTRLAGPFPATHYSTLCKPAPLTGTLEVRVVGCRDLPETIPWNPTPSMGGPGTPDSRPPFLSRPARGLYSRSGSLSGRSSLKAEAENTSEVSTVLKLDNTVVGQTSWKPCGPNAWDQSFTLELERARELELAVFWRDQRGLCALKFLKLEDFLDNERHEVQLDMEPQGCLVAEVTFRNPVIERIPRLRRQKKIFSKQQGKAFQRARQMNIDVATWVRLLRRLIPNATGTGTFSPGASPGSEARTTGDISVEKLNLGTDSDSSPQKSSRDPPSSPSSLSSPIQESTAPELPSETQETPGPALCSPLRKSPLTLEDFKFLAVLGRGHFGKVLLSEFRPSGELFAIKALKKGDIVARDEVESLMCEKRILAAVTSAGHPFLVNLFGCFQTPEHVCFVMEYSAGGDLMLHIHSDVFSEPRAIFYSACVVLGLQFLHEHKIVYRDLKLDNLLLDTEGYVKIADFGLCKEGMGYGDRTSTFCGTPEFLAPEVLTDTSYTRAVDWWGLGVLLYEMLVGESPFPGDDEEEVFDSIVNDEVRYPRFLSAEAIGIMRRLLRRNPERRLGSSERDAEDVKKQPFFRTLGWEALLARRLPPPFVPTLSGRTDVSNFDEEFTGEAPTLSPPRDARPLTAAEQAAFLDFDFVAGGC

HIPK3(h) = HIPK3(h) (Homo sapiens (Human), UniProt Q9H422); experiment: KinaseProfiler panel; parameters: dose or concentration left out as unconfirmed; conditions: activity remaining
PKG1α(h) = PKG1α(h) (Homo sapiens (Human), UniProt Q13976); experiment: KinaseProfiler panel; parameters: dose or concentration left out as unconfirmed; conditions: activity remaining
EphA8(h) = EphA8(h) (Homo sapiens (Human), UniProt P29322); experiment: KinaseProfiler panel; parameters: dose or concentration left out as unconfirmed; conditions: activity remaining
PKCθ(h) = PKCθ(h) (Homo sapiens (Human), UniProt Q04759); experiment: KinaseProfiler panel; parameters: dose or concentration left out as unconfirmed; conditions: activity remaining

In the case of `Cc1cc2c(-c3ccc(NC(=O)[C@H](N)CC(C)(C)C)cc3C)ccnc2[nH]1` [Compound F-90, (2R)-2-Amino-4,4-dimethyl-N-[3-methyl-4-(2-methyl-1H-pyrrolo[2,3-b]pyridin-4-yl)phenyl]pentanamide], the “% Activity” value (CDK12/cyclinK(h)) is reported as 89%, the “% Activity” value (MYLK2(h)) is reported as 76% and the “% Activity” value (PEK(h)) is reported as 91%. The “% Activity” value (Aurora-A(h)) was 97%, the “% Activity” value (MOK(h)) was 90% and the “% Activity” value (Lck(h)) was 86%. For the same compound, the “% Activity” value (CLK4(h)) was 85%, the “% Activity” value (EphB2(h)) was 96% and the “% Activity” value (ATR/ATRIP(h)) was 110%. The “% Activity” value (CDK17/cyclinY(h)) was 108%, the “% Activity” value (TAO1(h)) was 83% and the IC50 (PKAα) was > 3 µM. The “% Activity” value (SLK(h)) was 109%, the “% Activity” value (PRK2(h)) was 92% and the “% Activity” value (ROCK-II(h)) was 96%. For the same compound, the “% Activity” value (VRK1(h)) was 99%, the “% Activity” value (GRK1(h)) was 86% and the “% Activity” value (CDK7/cyclinH/MAT1(h)) was 95%. The “% Activity” value (SGK3(h)) was 102%, the “% Activity” value (A-Raf(h)) was 97% and the “% Activity” value (CaMKIδ(h)) was 89%. For the same compound, the “% Activity” value (PRK1(h)) was 91%, the “% Activity” value (HIPK3(h)) was 85% and the “% Activity” value (PKG1α(h)) was 118%. The “% Activity” value (EphA8(h)) was 115% and the “% Activity” value (PKCθ(h)) was 103%.
